# Results: publication PMC7277094 (Biomolecules, 2020)
# Values joined by “and” are separate entries in the source; they are usually repeats but may differ in a detail not shown here. Equal entries are not always repeated. Where two headings read alike, the source gives them in different places.
# Columns and labels:
# Tlp3 LBD [1] = molecular target: T1, Tlp3 LBD (Campylobacter jejuni subsp. jejuni, UniProt Q0P864); assay: Fluorescence-based thermal shift assay; format: binding, C. jejuni strain NCTC 11168; conditions: for ΔTm at 5000 µM: read-out: Thermal Shift ∆Tm; for Thermal Shift ∆Tm: 20 μM protein, 0.8–1.6 mM Biolog compound, Tm free protein 56.3 °C
# T1 sequence (Q0P864 entry or part of it): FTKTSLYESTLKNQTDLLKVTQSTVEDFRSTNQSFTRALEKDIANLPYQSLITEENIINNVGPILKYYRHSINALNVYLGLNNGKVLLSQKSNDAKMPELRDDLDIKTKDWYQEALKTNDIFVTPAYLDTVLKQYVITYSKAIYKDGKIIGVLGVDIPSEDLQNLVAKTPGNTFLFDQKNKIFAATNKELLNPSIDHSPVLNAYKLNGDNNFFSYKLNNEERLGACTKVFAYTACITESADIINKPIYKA
# From the text: Tlp3 LBD from C. jejuni strain NCTC 11168 was expressed in E. coli, purified according to the previously published procedure and used for high-throughput screening against the compounds from the Biolog Phenotype Microarray (PM) libraries PM1, PM3B, and PM5 using thermal shift assays. […] Each plate contains 95 compounds and a negative control (water). Thermal-shift-based screening is based on the phenomenon that ligand-binding alters thermal stability of the protein, resulting in an increase or decrease in the protein’s melting temperature (Tm). Screening was performed by following the protocol previously described by McKellar et al., with minor modifications. The compounds in the Biolog PM plates were dissolved in 50 μL of water, yielding a final concentration of 10–20 mM (as indicated by the manufacturer). Each assay was performed in a 25 μL volume and contained 20 μM protein, 0.8–1.6 mM Biolog compound, 10 mM Tris-HCl pH 8.0, 150 mM NaCl, and 10× SYPRO orange reagent (5000× stock, catalogue number S5692; Sigma-Aldrich). The samples were heated from 35 °C to 80 °C at a ramp rate of 0.5 °C min^−1 using a Rotor-Gene Q real-time PCR cycler (Qiagen, Venlo, Netherlands). Protein denaturation was monitored by following changes in the SYPRO Orange fluorescence emission (λex 530 nm/λem 555 nm) that result from the dye binding to the exposed hydrophobic protein regions. All experiments were performed in triplicate. The midpoint of denaturation (the melting temperature Tm) was calculated by fitting the data to the Boltzmann sigmoidal equation for the two-state unfolding model using GraphPad Prism (version 7.02) (GraphPad Software, La Jolla, CA, USA). The thermal shift assay with the three potential ligands identified using in silico screening was performed at a ligand concentration of 5 mM, with other conditions the same.
# Tlp3 LBD [2] = molecular target: T1, Tlp3 LBD; assay: Isothermal titration calorimetry (ITC); format: binding, C. jejuni strain NCTC 11168; conditions: for ∆H: ITC binding enthalpy; for ∆H / ∆S / Kd: 25 °C; for ∆S: ITC binding entropy; for Kd / Binding to Tlp3 LBD detected by ITC: 10 µM Tlp3 LBD; for Binding to Tlp3 LBD detected by ITC: ligand at 10 mM
# Procedure: Tlp3 LBD was dialysed against a buffer containing 100 mM Tris-HCl pH 8.0 and 150 mM NaCl. […] Calorimetry measurements were conducted on a VP-ITC MicroCal calorimeter (Malvern Instruments, UK) at 25 °C. The Tlp3 LBD sample (10 µM) in a 1.45 mL reaction cell was titrated with 25 successive 10 µL injections of ligand solution at a spacing of 200 s. All measurements were made in triplicate and corrected for heat changes measured when the ligand was titrated into the buffer. The data were integrated and normalised for protein concentration to generate binding isotherms.
# C. jejuni WT strain = assay: Nutrient-depleted hard agar plug chemotaxis assay, WT strain; format: cell-based, C. jejuni NCTC 11168; conditions: plugs prepared from 50–200 mM compound, CI > 1 attractant, < 1 repellent
# Tlp3 LBD [3] = assay: Co-crystallisation with Tlp3 LBD and X-ray electron density analysis; format: binding, C. jejuni; conditions: co-crystallised with 8 mM ligand; 1.4–1.5 Å resolution
# Procedure: The solution was then clarified by centrifugation at 13,000 g, 4 °C for 20 min and protein crystallisation was carried out by the hanging drop vapour diffusion method using crystallisation conditions similar to those described previously. Briefly, crystals were grown in 2 µL hanging drops suspended over 500 µL reservoir solution containing 22% (w/v) polyethylene glycol 3350, 100 mM sodium citrate pH 5.0 and 200 mM ammonium sulphate. The hanging drop was prepared by adding 1 µL of the protein/ligand mix to 1 µL of the reservoir solution. Crystals of all Tlp3 LBD/ligand complexes had similar unit-cell parameters and belonged to space group P2_1 (Table 2), with two molecules in the asymmetric unit.
# To perform data collection at cryogenic temperatures, the crystals were briefly soaked in a cryoprotectant solution consisting of 26% (w/v) polyethylene glycol 3350, 100 mM sodium citrate pH 5.0, 200 mM ammonium sulphate, 10% (v/v) glycerol, and 10 mM respective ligand, and then flash-cooled by plunging them into liquid nitrogen. X-ray diffraction data were collected at 100 K on the MX1 and MX2 beamlines of the Australian Synchrotron. The data were processed using iMOSFLM [65] and scaled with AIMLESS [66] from the CCP4 software suite.
# The crystal structures were determined using molecular replacement with PHASER [68] and the protein coordinates of the Tlp3 LBD/isoleucine complex (PDB code, 4XMR) as a search model. The models were refined with PHENIX [69] and manually rebuilt where necessary using COOT [70]. Analysis of the stereochemical quality of the final models was performed using MOLPROBITY [71]. The accessible surface area was calculated using AREAIMOL from CCP4. The structure figures were produced using PyMOL 4.1 [72].
# Tlp3 LBD [4] = molecular target: T1, Tlp3 LBD; parameters: method as in PMID 26457436; conditions: L-isoleucine not among ligands titrated here; listed as footnoted to previous study ref 32; cited from earlier work
# Tlp3 LBD Tyr118Ala = tested on: Tlp3 LBD Tyr118Ala; parameters: method as in PMID 26457436; conditions: Tyr118Ala vs wild-type Tlp3 LBD ref 32; cited from earlier work
# C. jejuni Δtlp3 mutant = assay: Nutrient-depleted hard agar plug chemotaxis assay, Δtlp3 mutant; format: cell-based, C. jejuni NCTC 11168; conditions: CI > 1 attractant, < 1 repellent
# [5] = single-site model, NB = no binding detected by ITC
SMILES,∆H (Tlp3 LBD [2]) [kcal/mol],∆S (Tlp3 LBD [2]) [cal mol^−1 deg^−1],Kd (Tlp3 LBD [2]; [5]) [µM],Thermal Shift ∆Tm (Tlp3 LBD [1]) [°C],Binding to Tlp3 LBD detected by ITC (Tlp3 LBD [2]),other results
CCC[C@@H](C)C(N)C(=O)O (stereo in doubt) [β-methyl-L-norleucine],-6.2 ± 0.2,−4.77,294 ± 14,,,ΔTm at 5000 µM (Tlp3 LBD [1]): 3.7 ± 0.2 °C
Nc1ccn([C@H]2C[C@H](O)[C@@H](CO)O2)c(=O)n1 [2-deoxycytidine],,,,1.4 ± 0.8,no binding,
CCC(C)(C)[C@H](N)C(=O)O [3-methyl-L-isoleucine],-5.7 ± 0.2,−4.03,484 ± 30,,,ΔTm at 5000 µM (Tlp3 LBD [1]): 2 ± 0.1 °C; Reduction of binding affinity (two methyl groups at Position 3) (Tlp3 LBD [2]; compared with single methyl substitution at Position 3 (L-isoleucine)): at least 5 fold
CC(C)[C@H](C)[C@H](N)C(=O)O [4-methyl-L-isoleucine],-5.1 ± 0.2,−1.01,324 ± 20,,,ΔTm at 5000 µM (Tlp3 LBD [1]): 2.8 ± 0.3 °C
C[C@H](N)C(=O)N[C@H](C(=O)O)[C@H](C)O [Ala-Thr],,,,1.1 ± 0.3,no binding,
C[C@H](N)C(=O)O [L-alanine],-150.2 ± 54.5,−495.50,4980 ± 917,−0.6 ± 0.7,,Kd (Tlp3 LBD [2]; 50 mM ligand): ~5000 µM and 5000 µM; Chemotactic response (chemotactic index CI) (C. jejuni WT strain): Tlp3-dependent attractant response
N=C(N)NCCC[C@H](N)C(=O)O [L-arginine],,,,,no binding,Electron density for ligand bound to Tlp3 LBD in crystal (Tlp3 LBD [3]): no electron density
N[C@@H](CC(=O)O)C(=O)O [L-aspartic acid],,,,,no binding,Electron density for ligand bound to Tlp3 LBD in crystal (Tlp3 LBD [3]): no electron density
CC[C@H](C)[C@H](N)C(=O)O [L-isoleucine],,,,,,∆H (Tlp3 LBD [4]): -4.4 ± 0.2 kcal/mol; ∆S (Tlp3 LBD [4]): 3.6 cal mol^−1 deg^−1; Reduction in binding affinity on Tyr118Ala substitution (Tlp3 LBD Tyr118Ala): ≥ 35 fold
CC(C)C[C@H](N)C(=O)O [L-leucine],-4.6 ± 0.1,2.9,105 ± 6,2.4 ± 0.2,,
NCCCC[C@H](N)C(=O)O [L-lysine],,,,,no binding,Electron density for ligand bound to Tlp3 LBD in crystal (Tlp3 LBD [3]): no electron density
N[C@@H](Cc1ccccc1)C(=O)O [L-phenylalanine],-5.9 ± 0.3,−5.44,730 ± 55,−0.3 ± 0.4,,Chemotactic response (chemotactic index CI) (C. jejuni WT strain): Tlp3-dependent attractant response
CC(C)[C@H](N)C(=O)O [L-valine],-4.4 ± 0.2,0.8,405 ± 27,1.3 ± 0.1,,
O=C(O)CC(O)C(=O)O (stereo not drawn) [malic acid],,,,,,Electron density for ligand bound to Tlp3 LBD in crystal (Tlp3 LBD [3]): no electron density
COC(=O)C(C)=O [methyl pyruvate],,,,−1.8 ± 0.0,no binding,
c1ncc2nc[nH]c2n1 [purine],,,,,did not bind,
"N[C@@H](CO)C(=O)O [serine, L-serine]",,,,,,Chemotactic response (chemotactic index CI) (C. jejuni Δtlp3 mutant): did not affect
CCC[C@@H](N)C(=O)O [α-amino-N-valeric acid],-6.5 ± 0.2,−4.5,168 ± 9,1.4 ± 0.3,,
